Measured values: patent US20130191933A1, “METHODS OF TREATING PAIN AND MORPHINE TOLERANCE VIA MODULATION OF HEDGEHOG SIGNALLING PATHWAY” (BOARD OF REGENTS, THE UNIVERSITY OF TEXAS SYSTEM, priority 2010, published 2013)
“Also recorded” adds a separate entry of the source. Read-outs that look alike come from different tables or passages of the source.

What was measured:
[1] = test system: rats with sciatic nerve ligation (neuropathic pain); assay: Neuropathic pain paradigm: sciatic nerve ligation, mechanical allodynia by Von Frey filaments; assay type: in vivo, Sprague-Dawley rats; details: rats two weeks after sciatic nerve ligation; daily intrathecal (lumbar puncture) drug; sub-clinical/low dose of morphine
Description: Animals underwent sciatic nerve ligation as described (Chung et al.), and were then allowed to recover for two weeks. Allodynia was measured using mechanical withdrawal threshold (Von Frey hairs). […] Drugs were administered using lumbar puncture under anesthesia.
Hh signaling modulates neuropathic pain, inflammatory pain, and opioid tolerance in rats. […] With regards to neuropathic pain, animals underwent sciatic nerve ligation as previously described in Chung et al., and were then allowed to recover for two weeks. Allodynia was measured by assessing the withdrawal threshold to a mechanical stimulus (Von Frey hairs). […] Drugs were administered using lumbar puncture under anesthesia.
To test this, we examined the effects of pharmacologically blocking Smoothened activity in rodent pain models. Injection of Complete Freund's Adjuvant (CFA) into the rat hindpaw causes local inflammation, swelling, and decreased nociceptive thresholds, Stein, C., et al., A. Unilateral inflammation of the Hindpaw in rats as a Model of Prolonged Noxious Stimulation: Alterations in Behavior and Nociceptive Thresholds, Pharmacol Biochem Behav 31, […] (1988). FIG. 11 provides an inflammatory pain paradigm. Here, the hindpaws were injected with saline (sham, n=6), or CFA. […] Similarly, FIG. 10 provides a neuropathic pain paradigm. […] Mechanical allodynia was assessed using Von Frey filaments. […]

[2] = test system: rats with complete Freund's adjuvant (CFA) injection (inflammatory pain); assay: Inflammatory pain paradigm: CFA hindpaw injection, thermal hyperalgesia by paw withdrawal latency (PWL); assay type: in vivo, Sprague-Dawley rats; details: rats after CFA hindpaw injection; for analgesic effect on thermal hyperalgesia (paw withdrawal latency, PWL): intrathecal (lumbar puncture) drug, Days 1-4; for development of tolerance to the analgesic effect (PWL): repeated intrathecal dosing
Description: Animals underwent complete Freund's adjuvant (CFA) injection under anesthesia. Hyperalgesia was then measured using withdrawal latency of the paw to a thermal stimulus (PWL). […] Drugs were administered using lumbar puncture under anesthesia.
Hyperalgesia was then measured using withdrawal latency of the paw to a thermal stimulus (PWL). […] Drugs were administered using lumbar puncture under anesthesia..
To test this, we examined the effects of pharmacologically blocking Smoothened activity in rodent pain models. Injection of Complete Freund's Adjuvant (CFA) into the rat hindpaw causes local inflammation, swelling, and decreased nociceptive thresholds, Stein, C., et al., A. Unilateral inflammation of the Hindpaw in rats as a Model of Prolonged Noxious Stimulation: Alterations in Behavior and Nociceptive Thresholds, Pharmacol Biochem Behav 31, […] (1988). FIG. 11 provides an inflammatory pain paradigm. Here, the hindpaws were injected with saline (sham, n=6), or CFA. […] Similarly, FIG. 10 provides a neuropathic pain paradigm. […] Animals received daily intrathecal injections of vehicle (n=3) or drugs (CP, n=6; MS, n=6; or MS+CP, n=5). Mechanical allodynia was assessed using Von Frey filaments. […] All data are+/−S.E.M.
Animals: Sprague-Dawley rats (male, […]) were housed three to a cage with water and food ad libitum and kept in temperature controlled rooms on a 12:12 hour light-dark cycle, with the dark cycle beginning at 7:00 pm. Animals were habituated to the testing environment for one week prior to testing and all tests were performed in the morning. All protocols were approved by our Institutional Animal Care and Use Committee.
(§1) Drugs and Intermittent Lumbar Puncture: Rats were anesthetized with 2% isoflurane in oxygen. The lumbar region was shaved, prepared with Betadine solution and the intervertebral spaces widened by placing the animal on a plexiglas tube.
Complete Freund's Adjuvant (CFA) […]: Under isoflurane […], the plantar surface of the left hindpaw was cleansed and 100 μl of CFA (Sigma, St. Louis, Mo.) injected using a 25-gauge needle. Animals recovered for 24 hours prior to analgesic testing.
Paw Withdrawal Latency (PWL): PWL was measured by placing the animals in Plexiglas cages (9×22×25 cm.) on a modified Hargreaves Device, consisting of a glass surface maintained at 30° C. A stimulus lamp was focused on the tail with three measurements taken on different portions of the tail. An abrupt flick of the tail secondary to the thermal stimulus was sensed by photodiodes, and this served to terminate the stimulus and stop the timer. Animals were habituated to the device for one week prior to testing and for 30 min before each test session. The intensity of the thermal stimulus used in the TFL test was adjusted so baseline TFL was between 10-12 seconds to 20 second was used as an automatic cutoff time to avoid paw damage. The TFLs at the time points of 15, 30, and 45 minutes post-injection were measured and compared (n=6-8 per group).

[3] = test system: morphine tolerance in rats; assay: Morphine tolerance assessed by tail flick latency (TFL); assay type: in vivo
Description: (§2) Drugs were administered daily using lumbar puncture under anesthesia. Tolerance was then assessed using tail flick latency (TFL), or the withdrawal latency of the tail to a thermal stimulus. […] On Day 8, all animals received morphine alone.
as §2, §1

[4] = molecular target: Smo (Homo sapiens, UniProt Q99835); details: cited from earlier work
[5] = test system: Gli-mediated transcription; details: in a variety of cell types (Cur-61414: cell and tissues types; Robotnikinin: also synthetic human tissue); cited from earlier work
[6] = molecular target: Shh (Homo sapiens, UniProt Q15465); details: cited from earlier work
[7] = test system: Gli1, Gli2, PtchI and other Shh-target genes; details: in a variety of cell types; cited from earlier work

Smo, sequence (Q99835 28-787): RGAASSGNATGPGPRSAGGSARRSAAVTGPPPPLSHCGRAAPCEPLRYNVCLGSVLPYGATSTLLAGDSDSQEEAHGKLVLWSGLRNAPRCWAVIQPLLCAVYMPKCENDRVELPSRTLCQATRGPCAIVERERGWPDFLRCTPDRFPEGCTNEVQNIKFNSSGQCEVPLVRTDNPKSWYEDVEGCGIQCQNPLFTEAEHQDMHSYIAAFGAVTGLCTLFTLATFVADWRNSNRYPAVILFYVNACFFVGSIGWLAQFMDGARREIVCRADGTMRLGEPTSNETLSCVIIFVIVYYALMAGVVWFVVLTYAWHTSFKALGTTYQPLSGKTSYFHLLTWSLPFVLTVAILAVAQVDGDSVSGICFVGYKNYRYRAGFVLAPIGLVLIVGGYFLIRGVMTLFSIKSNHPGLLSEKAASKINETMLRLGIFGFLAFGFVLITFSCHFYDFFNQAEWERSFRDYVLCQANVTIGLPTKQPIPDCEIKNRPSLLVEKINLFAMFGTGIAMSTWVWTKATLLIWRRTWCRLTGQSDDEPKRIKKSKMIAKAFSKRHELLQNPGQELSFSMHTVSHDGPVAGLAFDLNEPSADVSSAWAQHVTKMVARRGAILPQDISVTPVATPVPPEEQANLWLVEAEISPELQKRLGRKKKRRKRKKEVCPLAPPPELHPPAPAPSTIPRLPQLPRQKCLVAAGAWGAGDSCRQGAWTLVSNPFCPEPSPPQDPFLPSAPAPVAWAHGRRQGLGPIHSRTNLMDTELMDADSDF
Shh, sequence (Q15465 24-462, species assumed): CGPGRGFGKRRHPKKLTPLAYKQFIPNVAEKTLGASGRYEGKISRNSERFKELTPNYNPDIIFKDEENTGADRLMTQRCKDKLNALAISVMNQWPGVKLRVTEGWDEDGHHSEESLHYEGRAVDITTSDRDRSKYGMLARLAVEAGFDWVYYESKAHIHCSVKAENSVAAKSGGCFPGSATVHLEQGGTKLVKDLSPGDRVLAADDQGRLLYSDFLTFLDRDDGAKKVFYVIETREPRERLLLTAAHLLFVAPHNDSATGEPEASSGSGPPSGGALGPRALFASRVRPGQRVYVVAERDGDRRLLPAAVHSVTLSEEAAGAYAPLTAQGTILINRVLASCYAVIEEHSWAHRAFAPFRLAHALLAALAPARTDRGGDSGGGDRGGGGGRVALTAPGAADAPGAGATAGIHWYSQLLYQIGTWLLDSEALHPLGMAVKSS

CC1=C2C[C@H]3[C@@H](CC=C4C[C@@H](O)CC[C@@]43C)[C@@H]2CC[C@]12O[C@@H]1C[C@H](C)CN[C@H]1[C@H]2C [Cyclopamine]
analgesic effect on mechanical allodynia (mechanical withdrawal threshold, Von Frey) [1]: Neither morphine or cyclopamine had analgesic effects; also recorded: Neither a sub-clinical dose of morphine nor cyclopamine had analgesic effects; also recorded: neither cyclopamine nor a low dose of morphine had analgesic effects alone | analgesic effect on thermal hyperalgesia (paw withdrawal latency, PWL) [2]: mild analgesic effect that plateaued | analgesic effect on thermal hyperalgesia (paw withdrawal latency, PWL) ([2]; listed as cyclopamine): mild analgesic effect that plateaued; also recorded: had no analgesic effect | reversal of morphine tolerance (tail flick latency, TFL) ([3]; daily lumbar puncture, cyclopamine added to morphine from start, Day 3 or Day 5): completely reversed tolerance within two days; also recorded: reverses the development of morphine tolerance | tolerance on Day 8 after cyclopamine was removed (TFL) ([3]; on Day 8 all animals received morphine alone): animals were not tolerant on Day 8 | targeting / binding of Smo [4]: Targets Smo | targeting / binding of Smo ([4]; listed as cyclopamine): target Smo

O=C(C[C@@H]1C/C=C/CCC(=O)O[C@H](c2ccccc2)CNC1=O)NCc1ccc(Cl)cc1 [Robotnikinin]
Gli-mediated transcription [5]: Represses Gli-medicated transcription in a variety of cell types and | direct binding to Shh [6]: binds directly to Sonic Hedgehog; also recorded: Binds directly to Shh

CC1=C2C(=O)[C@H]3[C@@H](CC=C4C[C@@H](O)CC[C@@]43C)[C@@H]2CC[C@]12O[C@@H]1C[C@H](C)CN[C@H]1[C@H]2C [Jervine]
targeting / binding of Smo [4]: Targets Smo | targeting / binding of Smo ([4]; listed as jervine): target Smo | transcription of Gli1, Gli2, PtchI and other Shh-target genes [7]: Inhibits transcription of Gli1, Gli2, PtchI and other Shh-target

CN1CC[C@]23c4c5ccc(O)c4O[C@H]2[C@@H](O)C=C[C@H]3[C@H]1C5 [morphine]
analgesic effect on mechanical allodynia (mechanical withdrawal threshold, Von Frey) [1]: Neither morphine or cyclopamine had analgesic effects; also recorded: Neither a sub-clinical dose of morphine nor cyclopamine had analgesic effects; also recorded: neither cyclopamine nor a low dose of morphine had analgesic effects alone | analgesic effect on thermal hyperalgesia (paw withdrawal latency, PWL) [2]: caused analgesia | analgesic effect on thermal hyperalgesia (paw withdrawal latency, PWL) ([2]; listed as Morphine): exhibited analgesic effects | development of tolerance to the analgesic effect (PWL) [2]: tolerance developed with repeated dosing | development of tolerance to the analgesic effect (PWL) ([2]; listed as Morphine): tolerance developed rapidly
